The values below come from patent US20220127297A1, “Novel Antibacterial 3"-Derivatives Of 4,6-Disubstituted 2,5-Dideoxystreptamine Aminoglycoside Antibiotics” (AGILeBiotics B.V., priority 2018, published 2022).

Values after ≈ are worked out from the molar mass of the structure shown. Like-named read-outs stand apart in the source and are kept apart here.

In one experiment the test system is K. pneumoniae DSM 26371. Description: MIC 50, broth micro-dilution, DSM strains. Type of experiment: cell-based, Klebsiella pneumoniae. The text has this: (§1) 3.2 Against Selected Bacteria of the ESKAPE Panel and Enterococcus faecalis (DSM Strains)
(§2) Tested reference compounds. Amikacin sulfate (Cat. No. 01693, Chem-Impex), Gentamicin sulfate (Cat. No. G4918, Sigma Aldrich).
(§3) Microbial strains. Enterococcus faecalis DSM 2570, Klebsiella pneumoniae DSM 26371, Acinetobacter baumannii DSM 105126, Enterobacter cloacae 3MRGN (clinical bronchial aspirate isolate).
(§4) Culture media and equipment. BBL™ Mueller Hinton Broth 2 (Lot. BCBW1143, Cat. No. 70192, Sigma); Trypcase Soy Blood-agar plates (Cat. No. 43001, Biomérieux); Cryoinstant (contains 15% glycerol; Cat. No. 822070ZA, VWR International); GasPak™ EZ Standard Incubation Container (Cat. No. 260671, Becton Dickinson); GasPak™ EZ Campy Container System Sachets (Cat. No. 260680, Becton Dickinson); 96-well deep well plate, 1 mL (Cat. No. 0030506.200, Eppendorf); Plate lid (Cat. No. 0030131.525, Eppendorf); 96-well plate, F-bottom (Cat. No. 260860, Nunc); Incubator (Sartorius Certomat BS-1); Laminar flow (Heraeus HS12); UV/VIS meter (Perkin Elmer Lambda Bio+); Platereader (Tecan Infinite M200 Pro).
(§5) Compound preparation. Compounds were prepared in MH2 media at a concentration of 5 mM and stored at 4° C. For testing, solutions of 128 μM were prepared in MH2, for tests against E. faecalis a solution of 512 μM was prepared. Out of these working solutions, 400 μL was transferred to wells in the first column of 96-well deep well plates. Each compound was transferred in triplicate. Plates were previously filled with 200 μL of MH2 media in all wells except for the wells in the first column. After compound and antibiotic addition, the compounds were serial two-fold diluted by transferring 200 μL from the first to the second column, then from the second to the third column and so on. Finally, 200 μL was removed from the last column.
(§6) Inoculum preparation. Microorganisms used were all revived from 15% glycerol storage in Croinstant tubes at −28° C. by plating them on blood agar plates. A. baumanni, and E. cloacae were grown aerobically at 37° C., E. faecalis was grown microaerophilically at 37° C., and K. pneumoniae was grown aerobically at 37° C. Plates were stored at 4° C. for up to two weeks, after which new plates were prepared from −28° C. A single colony was inoculated in MH2 media and grown at 37° C. and 200 rpm to an optical density (measured by UV/Vis spectroscopy) of 0.6-0.8 at 600 nm. Out of these suspensions, actual inoculums were prepared by diluting them to an optical density of 0.1 in MH2 media. From these inoculums, 200 μL was transferred to each well, resulting in a final compound concentration range of 64 μM-31.3 nM for, K. pneumoniae, A. baumanni, and E. cloacae, and 256 μM-125 nM for E. faecalis. Plates inoculated with E. faecalis were placed inside a GasPak™ Container System with GasPak™ Campy Container System sachets. All plates were incubated at 200 rpm for 18 h under the microorganism culturing conditions mentioned above.
(§7) MIC determination. After 18 h of growth, 200 μL was transferred to a 96-well F-bottom plate. The optical density was determined by a plate reader at 600 nm, with 10 s shaking before reading. Triplicate measurements were averaged, and a growth curve was plotted in Excel. The first column in which the growth reached half the value of maximum growth was determined as the MIC50 value for that particular compound.
(§8) MIC50. The MIC50 of a compound was assigned at which the bacterial growth reached half the value of maximum growth.
(In broth dilution the organism is exposed to a series of concentrations in liquid medium.)

In another experiment the test system is E. faecalis DSM 2570. Description: MIC 50, broth micro-dilution, DSM strains. Type of experiment: cell-based, Enterococcus faecalis.
Excerpt: as §1, §2, §3, §4, §5, §6, §7, §8

[1] abbreviates: Klebsiella pneumoniae, DSM26371, K. pneumoniae DSM 26371, read-out: MIC 50.
The mark [2] stands for this setting: Enterococcus faecalis, DSM2570, read-out: MIC 50.

With `N=C(NCCCO)NC1[C@@H](O)C(OC2[C@@H](F)[C@H](O[C@H]3OC(CN)[C@@H](O)CC3N)C(N)C[C@H]2NC(=O)[C@@H](O)CCN)O[C@H](CO)[C@H]1O` (some centres unmarked) [ABX5041, Tobra-AHB-F-Gua 3-hydroxy-propyl], the MIC50 was 0.5 µM (≈ 0.335 µg/mL) in the experiment on K. pneumoniae DSM 26371 (setting [1]) and 4 to 8 µM (≈ 2.68 to 5.37 µg/mL) with E. faecalis DSM 2570 (setting [2]).
On the same counts, the results for `N=C(N)NC1[C@@H](O)C(OC2[C@@H](F)[C@H](O[C@H]3OC(CN)[C@@H](O)[C@H](O)C3O)C(N)C[C@H]2NC(=O)[C@@H](O)CCN)O[C@H](CO)[C@H]1O` (stereo partly drawn) [ABX3003, 3′epi-KanaA-AHB-F-Gua] are 0.5 µM (≈ 0.315 µg/mL) and 64 µM (≈ 40.3 µg/mL).
As for `N=C(N)N[C@@H]1[C@@H](O)[C@@H](O[C@@H]2[C@@H](O)[C@H](O[C@H]3O[C@H](CN)[C@@H](O)[C@@H](O)[C@H]3N)[C@@H](N)C[C@H]2NC(=O)[C@@H](O)CCN)O[C@H](CO)[C@H]1O` [ABX4005, 3′Epi-KanaB-AHB-Gua], the “MIC50” value against K. pneumoniae DSM 26371 (K. pneumoniae DSM 26371) fell in the range of 1 to 2 µM; against E. faecalis DSM 2570, 32 to 64 µM.
In the case of `N=C(N)NC1[C@@H](O)C(OC2[C@@H](F)[C@H](O[C@H]3OC(CNCCO)[C@@H](O)CC3N)C(N)C[C@H]2NC(=O)[C@@H](O)CCN)O[C@H](CO)[C@H]1O` (some centres unmarked) [ABX5045, 6N-2-hydroxy-ethyl-Tobra-AHB-F-Gua], the MIC50 was 0.5 µM (≈ 0.328 µg/mL) in the experiment with K. pneumoniae DSM 26371 (setting [1]) and 8 to 16 µM (≈ 5.25 to 10.5 µg/mL) in the experiment on E. faecalis DSM 2570 (setting [2]).
On the same counts, the results for `N=C(NCCCN)NC1[C@@H](O)C(OC2[C@@H](F)[C@H](O[C@H]3OC(CN)[C@@H](O)CC3N)C(N)C[C@H]2NC(=O)[C@@H](O)CCN)O[C@H](CO)[C@H]1O` (some centres unmarked) [ABX5030, Tobra-AHB-F-Gua-3-amino-propyl] are 0.125 µM (≈ 0.0837 µg/mL) and 32 µM (≈ 21.4 µg/mL).
The like results for `CNCCNC(=N)NC1[C@@H](O)C(OC2[C@@H](F)[C@H](O[C@H]3OC(CN)[C@@H](O)CC3N)C(N)C[C@H]2NC(=O)[C@@H](O)CCN)O[C@H](CO)[C@H]1O` (some centres unmarked) [ABX5038, Tobra-AHB-F-Gua 2-(methylamino)ethyl] were, in that order, 0.5 µM (≈ 0.335 µg/mL) and 16 µM (≈ 10.7 µg/mL).
The like results for `N=C(NCC1CCOC1)NC1[C@@H](O)C(OC2[C@@H](F)[C@H](O[C@H]3OC(CN)[C@@H](O)CC3N)C(N)C[C@H]2NC(=O)[C@@H](O)CCN)O[C@H](CO)[C@H]1O` (some centres unmarked) [ABX5051, Tobra-AHB-F-Gua tetrahydrofuran-3-yl methyl] were, in that order, 0.5 µM (≈ 0.348 µg/mL) and 8 µM (≈ 5.57 µg/mL).
As for `C[C@@H](N)CCNC(=N)NC1[C@@H](O)C(OC2[C@@H](F)[C@H](O[C@H]3OC(CN)[C@@H](O)CC3N)C(N)C[C@H]2NC(=O)[C@@H](O)CCN)O[C@H](CO)[C@H]1O` (stereo partly drawn) [ABX5047, Tobra-AHB-F-Gua (R) 3-amino-butyl], the MIC50 in the experiment with K. pneumoniae DSM 26371 (setting [1]) was 0.25 µM (≈ 0.171 µg/mL); in the experiment with E. faecalis DSM 2570 (setting [2]) it was 2 to 4 µM (≈ 1.37 to 2.74 µg/mL).
On the same counts, the results for `CC(C)(C)CCNC(=N)NC1[C@@H](O)C(OC2[C@@H](F)[C@H](O[C@H]3OC(CN)[C@@H](O)CC3N)C(N)C[C@H]2NC(=O)[C@@H](O)CCN)O[C@H](CO)[C@H]1O` (some centres unmarked) [ABX5025, Tobra-AHB-F-Gua 2-tBu-ethyl] are 0.5 µM (≈ 0.348 µg/mL) and 16 µM (≈ 11.1 µg/mL).
The like results for `N=C(NCCN)NC1C(O)[C@@H](CO)OC(OC2C(F)[C@H](O[C@H]3OC(CN)[C@@H](O)CC3N)C(N)C[C@H]2NC(=O)[C@@H](O)CCN)[C@@H]1O` (some centres unmarked) [ABX5020, Tobra-AHB-F-Gua-2-amino-ethyl] were, in that order, 0.5 µM (≈ 0.328 µg/mL) and 4 to 8 µM (≈ 2.62 to 5.25 µg/mL).
